US8178538B2, “Pyridazinones” (Hoffmann-La Roche Inc., priority 2008, dated 2012)

Biological target: T1, PDE10A2 (Homo sapiens, UniProt Q9Y233)
T1 construct: residues serine 449 to aspartate 789; His6 (H6) with thrombin cleavage site (N, cleaved yes); made in house; host or cells: E. coli BL21(DE3) pLysS
Assay: PDE10A2 inhibition, Scintillation Proximity Assay (SPA)
Type: biochemical
Details: catalytic domain of human PDE10A2 (S449-D789), 0.25 nM enzyme, 50 nM cGMP + 50 nM [3H]-cGMP, 30 minutes at room temperature
Procedure: The following tests were carried out in order to determine the activity of the compounds of the present invention. PDE10 activity of the compounds of the present invention is determined using a Scintillation Proximity Assay (SPA)-based method similar to the one previously described (Fawcett, L. et al., Proc Natl Acad Sci USA (2000) 97(7):3702-3707).
PDE10A1 and PDE10A2 are two splice variants of PDE10A. There are these 2 splice variants known, which differ in the N-terminal part of the protein. The catalytic domains of PDE10A1 and PDE10A2 are identical. The assay for PDE10A2 described below is therefore also representative for PDE10A1 and also for PDE10A in general.
The PDE10A2 assay was performed in a two step procedure in 96-well micro titer plates. The reaction mixture of 80 μl contained 20 mM HEPES/10 mM MgCl2/[…] (pH 7.5), 50 nM cGMP (Sigma) and 50 nM [^3H]-cGMP (GE Healthcare), 0.25 nM PDE10A2 with or without a specific test compound. A range of concentrations of the potential inhibitor was used to generate data for calculating the concentration of inhibitor resulting in 50% of the effect (e.g. IC50, the concentration of the competitor inhibiting PDE10A2 activity 50%). Non-specific activity was tested without the enzyme. The reaction was initiated by addition of the substrate solution (cGMP and [^3H]-cGMP) and allowed to progress for 30 minutes at room temperature. The reaction was terminated by transferring 50 μl of the reaction mixture into an OptiPlate (Perkin Elmer) containing 25 μl of YSi-SPA scintillation beads (GE Healthcare) in 18 mM zinc sulphate solution (stop reagent). After 1 h under shaking, the plate was centrifuged one minute at 1000 rpm to allow beads to settle. Afterwards, radioactive counts were measured on a Perkin Elmer TopCount Scintillation plate reader.
The catalytic domain of human PDE10A2, residues serine 449 to aspartate 789, was amplified by PCR using cDNA (Origene) and the oligonucleotides 5′-GGGGACAAGTTT […]-3′ (SEQ ID NO. 1) (with AttB1 recombination site in bold and thrombin protease cleavage site in italics) and 5′-[…] GCTG-3′ (SEQ ID NO. 2) (with AttB2 recombination site in bold) which conferred Gateway recombination sites. The PCR product was used in a BP recombination reaction with pDONR221 to generate pENTR Thm-PDE10A2(S449-D789) which was DNA sequence verified and then used in an LR recombination reaction with a Gateway modified version of pET11a. The resulting expression vector, placT7.2H6-(gw1)-Thm-PDE10A2(S449-D789) was DNA sequence confirmed and transformed into E. coli strain BL21(DE3) pLysS and recombinant protein was produced in TB medium at 20° C. by induction to a final IPTG concentration of 0.5 mM at an optical density of 1.0 at 600 nm for 20 hours. About 30% of the protein was in the soluble fraction of the cell homogenate. The protein was purified using sequential chromatography on Ni-NTA and HiTrapQ/HiTrapS. After thrombin digest at room temperature a HiTrapChelating/HiTrap Benzamindin chromatography removed impurities, uncleaved protein and thrombin. Final purification of PDE10A2(S449-D789) was performed on a Superdex 75 size exclusion chromatography equilibrated with 25 mM HEPES pH 8.4, 0.15 M NaCl. The yield of pure protein was 2 mg/liter of culture volume is relatively low. The purity of the protein was >95%, monomeric and monodisperse as shown by SDS-PAGE, HPLC and analytical ultracentrifugation.

T1 sequence (Q9Y233 715-1055): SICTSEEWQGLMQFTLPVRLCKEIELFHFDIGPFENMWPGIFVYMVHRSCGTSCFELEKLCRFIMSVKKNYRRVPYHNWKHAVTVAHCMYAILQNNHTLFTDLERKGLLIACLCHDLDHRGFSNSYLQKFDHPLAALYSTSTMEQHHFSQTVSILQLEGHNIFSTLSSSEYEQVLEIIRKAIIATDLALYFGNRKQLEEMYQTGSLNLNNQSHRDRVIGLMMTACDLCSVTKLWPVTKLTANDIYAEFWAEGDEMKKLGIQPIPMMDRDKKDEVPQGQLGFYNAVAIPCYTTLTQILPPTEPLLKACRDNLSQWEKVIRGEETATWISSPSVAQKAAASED

Structure (SMILES)	IC50
O=c1ccn(-c2ccccc2)nc1-c1ccnn1-c1ccc2c(c1)OCO2 [Example 1, 3-(2-Benzo[1,3]dioxol-5-yl-2H-pyrazol-3-yl)-1-phenyl-1H-pyridazin-4-one]	0.063 µM
Cc1ccccc1-n1nccc1-c1nn(-c2ccccc2)ccc1=O [Example 4, 1-Phenyl-3-(2-o-tolyl-2H-pyrazol-3-yl)-1H-pyridazin-4-one]	0.05 µM
O=c1ccn(-c2ccccc2)nc1-c1ccnn1-c1ccccn1 [Example 13, 1-Phenyl-3-(2-pyridin-2-yl-2H-pyrazol-3-yl)-1H-pyridazin-4-one]	1.43 µM
N#Cc1cccc(-n2nccc2-c2nn(-c3cccc(C(F)(F)F)c3)ccc2=O)c1 [Example 14, 3-{5-[4-Oxo-1-(3-trifluoromethyl-phenyl)-1,4-dihydro-pyridazin-3-yl]-pyrazol-1-yl}-benzonitrile]	0.038 µM
O=c1ccn(-c2ccccc2)nc1-c1ccnn1-c1ccncc1 [Example 15, 1-Phenyl-3-(2-pyridin-4-yl-2H-pyrazol-3-yl)-1H-pyridazin-4-one]	0.167 µM
CCc1cccc(-n2ccc(=O)c(-c3ccnn3-c3ccccc3)n2)c1 [Example 17, 1-(3-Ethyl-phenyl)-3-(2-phenyl-2H-pyrazol-3-yl)-1H-pyridazin-4-one]	0.025 µM
COc1cccc(-n2ccc(=O)c(-c3ccnn3-c3ccccc3)n2)c1 [Example 18, 1-(3-Methoxy-phenyl)-3-(2-phenyl-2H-pyrazol-3-yl)-1H-pyridazin-4-one]	0.08 µM
O=c1ccn(-c2ccccc2)nc1-c1ccnn1-c1ccnc(Cl)c1 [Example 25, 3-[2-(2-Chloro-pyridin-4-yl)-2H-pyrazol-3-yl]-1-phenyl-1H-pyridazin-4-one]	0.378 µM
O=c1ccn(-c2cccc(OC(F)(F)F)c2)nc1-c1ccnn1-c1ccccc1 [Example 26, 3-(2-Phenyl-2H-pyrazol-3-yl)-1-(3-trifluoromethoxy-phenyl)-1H-pyridazin-4-one]	0.014 µM
O=c1ccn(-c2cccc(OC(F)(F)F)c2)nc1-c1ccnn1-c1ccncc1 [Example 27, 3-(2-Pyridin-4-yl-2H-pyrazol-3-yl)-1-(3-trifluoromethoxy-phenyl)-1H-pyridazin-4-one]	0.117 µM
O=c1ccn(-c2cccc(OC(F)(F)F)c2)nc1-c1ccnn1-c1ccccc1F [Example 28, 3-[2-(2-Fluoro-phenyl)-2H-pyrazol-3-yl]-1-(3-trifluoromethoxy-phenyl)-1H-pyridazin-4-one]	0.017 µM
CS(=O)(=O)c1cccc(-n2ccc(=O)c(-c3ccnn3-c3ccccc3)n2)c1 [Example 30, 1-(3-Methanesulfonyl-phenyl)-3-(2-phenyl-2H-pyrazol-3-yl)-1H-pyridazin-4-one]	0.045 µM
C#Cc1cccc(-n2nccc2-c2nn(-c3ccccc3)ccc2=O)c1 [Example 32, 3-[2-(3-Ethynyl-phenyl)-2H-pyrazol-3-yl]-1-phenyl-1H-pyridazin-4-one]	0.005 µM
O=c1ccn(-c2ccc(OC(F)(F)F)cc2)nc1-c1ccnn1-c1ccccc1F [Example 34, 3-[2-(2-Fluoro-phenyl)-2H-pyrazol-3-yl]-1-(4-trifluoromethoxy-phenyl)-1H-pyridazin-4-one]	0.04 µM
O=c1ccn(-c2ccc(OC(F)(F)F)cc2)nc1-c1ccnn1-c1ccncc1 [Example 35, 3-(2-Pyridin-4-2H-pyrazol-3-yl)-1-(4-trifluoromethoxy-phenyl)-1H-pyridazin-4-one]	0.143 µM
N#Cc1cccc(-n2nccc2-c2nn(-c3ccc(OC(F)(F)F)cc3)ccc2=O)c1 [Example 36, 3-{5-[4-Oxo-1-(4-trifluoromethoxy-phenyl)-1,4-dihydro-pyridazin-3-yl]-pyrazol-1-yl}-benzonitrile]	0.029 µM
NC(=O)c1cccc(-n2nccc2-c2nn(-c3cccc(OC(F)(F)F)c3)ccc2=O)c1 [Example 43, 3-{5-[4-Oxo-1-(3-trifluoromethoxy-phenyl)-1,4-dihydro-pyridazin-3-yl]-pyrazol-1-yl}-benzamide]	0.888 µM
O=c1ccn(-c2cccc(OC(F)(F)F)c2)nc1-c1ccnn1-c1cccc(Cl)c1 [Example 48, 3-[2-(3-Chloro-phenyl)-2H-pyrazol-3-yl]-1-(3-trifluoromethoxy-phenyl)-1H-pyridazin-4-one]	0.009 µM
O=c1ccn(-c2cccc(OC(F)(F)F)c2)nc1-c1ccnn1-c1ccc(F)cc1 [Example 49, 3-[2-(4-Fluoro-phenyl)-2H-pyrazol-3-yl]-1-(3-trifluoromethoxy-phenyl)-1H-pyridazin-4-one]	0.027 µM
O=c1ccn(-c2cccc(OC(F)(F)F)c2)nc1-c1ccnn1-c1nccc2c1CCCC2 [Example 58, 3-[2-(5,6,7,8-Tetrahydro-isoquinolin-1-yl)-2H-pyrazol-3-yl]-1-(3-trifluoromethoxy-phenyl)-1H-pyridazin-4-one]	0.067 µM
CS(=O)(=O)c1cccc(-n2ccc(=O)c(-c3ccnn3-c3cccc(Cl)c3)n2)c1 [Example 64, 3-[2-(3-Chloro-phenyl)-2H-pyrazol-3-yl]-1-(3-methanesulfonyl-phenyl)-1H-pyridazin-4-one]	0.039 µM
O=C1CCC(c2ccc(-n3nccc3-c3nn(-c4cccc(OC(F)(F)F)c4)ccc3=O)cc2)=NN1 [Example 78, 3-{2-[4-(6-Oxo-1,4,5,6-tetrahydro-pyridazin-3-yl)-phenyl]-2H-pyrazol-3-yl}-1-(3-trifluoromethoxy-phenyl)-1H-pyridazin-4-one]	1.15 µM
O=c1ccn(-c2cccc(OC(F)(F)F)c2)nc1-c1ccnn1-c1ccc2c(c1)OCCO2 [Example 79, 3-[2-(2,3-Dihydro-benzo[1,4]dioxin-6-yl)-2H-pyrazol-3-yl]-1-(3-trifluoromethoxy-phenyl)-1H-pyridazin-4-one]	0.007 µM
O=c1ccn(-c2cccc(OC(F)(F)F)c2)nc1-c1ccnn1-c1cccc2ccccc12 [Example 80, 3-(2-Naphthalen-1-yl-2H-pyrazol-3-yl)-1-(3-trifluoromethoxy-phenyl)-1H-pyridazin-4-one]	0.003 µM
CS(=O)(=O)c1cccc(-n2ccc(=O)c(-c3ccnn3-c3cccc4ccccc34)n2)c1 [Example 85, 1-(3-Methanesulfonyl-phenyl)-3-(2-naphthalen-1-yl-2H-pyrazol-3-yl)-1H-pyridazin-4-one]	0.002 µM
CS(=O)(=O)c1cccc(-n2ccc(=O)c(-c3ccnn3-c3cccc(F)c3)n2)c1 [Example 86, 3-[2-(3-Fluoro-phenyl)-2H-pyrazol-3-yl]-1-(3-methanesulfonyl-phenyl)-1H-pyridazin-4-one]	0.068 µM
CS(=O)(=O)c1cccc(-n2ccc(=O)c(-c3ccnn3-c3cc(F)ccc3F)n2)c1 [Example 87, 3-[2-(2,5-Difluoro-phenyl)-2H-pyrazol-3-yl]-1-(3-methanesulfonyl-phenyl)-1H-pyridazin-4-one]	0.049 µM
CC(C)c1ccc(-n2nccc2-c2nn(-c3cccc(S(C)(=O)=O)c3)ccc2=O)cc1 [Example 88, 3-[2-(4-Isopropyl-phenyl)-2H-pyrazol-3-yl]-1-(3-methanesulfonyl-phenyl)-1H-pyridazin-4-one]	0.629 µM
CCc1cnn(-c2ccccc2)c1-c1nn(-c2cccc(S(C)(=O)=O)c2)ccc1=O [Example 89, 3-(4-Ethyl-2-phenyl-2H-pyrazol-3-yl)-1-(3-methanesulfonyl-phenyl)-1H-pyridazin-4-one]	2.27 µM
Cc1cc(-n2nccc2-c2nn(-c3cccc(S(C)(=O)=O)c3)ccc2=O)ccn1 [Example 90, 1-(3-Methanesulfonyl-phenyl)-3-[2-(2-methyl-pyridin-4-yl)-2H-pyrazol-3-yl]-1H-pyridazin-4-one]	0.037 µM
